Measurements as given in ChEMBL document CHEMBL4813922, “Discovery of a novel small-molecule inhibitor of Fam20C that induces apoptosis and inhibits migration in triple negative breast cancer” (Eur J Med Chem, 2021).

Columns and labels:
MDA-MB-468 = assay: Antiproliferative activity against human MDA-MB-468 cells measured by MTT assay; format: functional, cell-based
MDA-MB-231 = assay: Antiproliferative activity against human MDA-MB-231 cells measured by MTT assay; format: functional, cell-based
MCF7 = assay: Antiproliferative activity against human MCF7 cells measured by MTT assay; format: functional, cell-based
[1] = target: T1, Extracellular serine/threonine protein kinase FAM20C (Homo sapiens) (UniProt Q8IXL6); assay: Inhibition of Fam20C (unknown origin) assessed as reduction in inorganic phosphate release in presence of ATP at 10 uM measured by Malachite green phosphate staining based micro plate reader assay relative to control
T1 sequence (whole entry): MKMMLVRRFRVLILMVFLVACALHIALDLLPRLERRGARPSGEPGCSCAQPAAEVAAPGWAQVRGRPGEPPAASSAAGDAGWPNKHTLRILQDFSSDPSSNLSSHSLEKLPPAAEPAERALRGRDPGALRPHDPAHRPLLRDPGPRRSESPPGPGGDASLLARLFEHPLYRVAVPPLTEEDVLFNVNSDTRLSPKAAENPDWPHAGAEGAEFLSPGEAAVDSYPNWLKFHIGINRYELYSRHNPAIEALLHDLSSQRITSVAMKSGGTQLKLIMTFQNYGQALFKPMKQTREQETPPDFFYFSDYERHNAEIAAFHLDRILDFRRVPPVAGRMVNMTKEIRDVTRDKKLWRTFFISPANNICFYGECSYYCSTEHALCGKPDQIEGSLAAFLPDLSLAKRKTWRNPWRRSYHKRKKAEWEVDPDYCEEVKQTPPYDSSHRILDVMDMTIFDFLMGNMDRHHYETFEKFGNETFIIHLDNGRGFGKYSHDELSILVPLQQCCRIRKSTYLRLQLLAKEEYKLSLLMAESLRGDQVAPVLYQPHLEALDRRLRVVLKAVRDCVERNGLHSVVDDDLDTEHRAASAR

Row | Compound | IC50 (MDA-MB-468) | IC50 (MDA-MB-231) | IC50 (MCF7) | inhibition [1]
1 | O=S(=O)(Nc1ccc(Nc2nc(Nc3ccc(F)cc3)cc(C(F)(F)F)n2)cc1)c1ccccc1OC(F)(F)F | > 50 µM | 20.8 µM | 16.7 µM | 24%
2 | COc1ccc(Nc2ccc(Nc3nc(C)cc(Nc4ccc(OC)cc4)n3)cc2)cc1 | > 50 µM | > 50 µM | > 50 µM | 14%
3 | COc1cc(C)cc(Cl)c1S(=O)(=O)Nc1ccc(Nc2nc(C)cc(Nc3ccc(F)cc3)n2)cc1 | > 50 µM | > 50 µM | > 50 µM | 12%
4 | COc1ccc(Nc2cc(C(F)(F)F)nc(Nc3ccc(NS(=O)(=O)c4ccccc4Cl)cc3)n2)cc1 | > 50 µM | 43.6 µM | > 50 µM | 21%
5 | COc1ccc(Nc2ccnc(Nc3ccc(NS(=O)(=O)c4ccc(C(F)(F)F)cc4)cc3)n2)cc1 | > 50 µM | 27.2 µM | 34.8 µM | 18%
6 | COc1ccc(C(=O)Nc2ccc(Nc3nccc(Nc4ccc(OC)cc4C)n3)cc2)cc1 | > 50 µM | 23.3 µM | > 50 µM | 23%
7 | COc1ccc(Nc2cc(C)nc(Nc3ccc(NS(=O)(=O)c4ccccc4Cl)cc3)n2)cc1 | > 50 µM | 15.3 µM | > 50 µM | 40%
8 | COc1ccc(C(=O)Nc2ccc(Nc3nc(C)cc(Nc4cc(OC)c(OC)c(OC)c4)n3)cc2)cc1 | 3.62 µM | 7.2 µM | > 50 µM | 49%
9 | COc1ccc(Nc2ccnc(Nc3ccc(NS(=O)(=O)c4ccc(C)cc4)cc3)n2)cc1 | > 50 µM | 21.2 µM | > 50 µM | 28%
10 | COc1ccc(Nc2cc(C(F)(F)F)nc(Nc3ccc(NS(=O)(=O)c4ccc(OC)cc4)cc3)n2)cc1 | > 50 µM | 21.2 µM | > 50 µM | 43%
11 | COc1ccc(Nc2cc(C)nc(Nc3ccc(NS(=O)(=O)c4c(Cl)cc(C)cc4OC)cc3)n2)cc1 | > 50 µM | > 50 µM | > 50 µM | 12%
12 | O=S(=O)(Nc1ccc(Nc2nc(Nc3ccc(F)cc3)cc(C(F)(F)F)n2)cc1)c1ccc(C(F)(F)F)cc1 | > 50 µM | > 50 µM | 17.2 µM | 15%
